ChEMBL document CHEMBL5532655, “Discovery of (R)-4-(8-methoxy-2-methyl-1-(1-phenylethy)-1H-imidazo[4,5-c]quinnolin-7-yl)-3,5-dimethylisoxazole as a potent and selective BET inhibitor for treatment of acute myeloid leukemia (AML) guided by FEP calculation” (Eur J Med Chem, 2024)

Assays:
Test in all cases: cells
MOLM-13 = conditions: Homo sapiens, MOLM-13, 48 h
Description: Antiproliferative activity against human MOLM-13 cells assessed as inhibition of cell growth incubated for 48 hrs by MTT assay

MM1.S = conditions: Homo sapiens, 48 h
Description: Antiproliferative activity against human MM1.S cells assessed as inhibition of cell growth incubated for 48 hrs by MTT assay

MV4-11 = conditions: Homo sapiens, MV4-11, 48 h
Description: Antiproliferative activity against human MV4-11 cells assessed as inhibition of cell growth incubated for 48 hrs by MTT assay

Jurkat = conditions: Homo sapiens, 48 h
Description: Antiproliferative activity against human Jurkat cells assessed as inhibition of cell growth incubated for 48 hrs by MTT assay

Structure (SMILES) | IC50 (MOLM-13) | IC50 (MM1.S) | IC50 (MV4-11) | IC50 (Jurkat)
COc1cc2c(cc1-c1cnc(N)nc1)ncc1nc(C)n([C@@H](C)c3ccccc3)c12 | > 20 µM | 9.23 µM | > 20 µM | > 20 µM
COc1ccc(-n2c(C)nc3cnc4cc(-c5cnc6[nH]ccc6c5)c(OC)cc4c32)cc1 | > 20 µM | 13 µM | 18.6 µM | 4.71 µM
COc1ccc(-n2c(C)nc3cnc4cc(-c5c(C)n[nH]c5C)c(OC)cc4c32)cc1 | > 20 µM | 3.12 µM | 10.6 µM | > 20 µM
COc1ccc(-n2c(C)nc3cnc4cc(-c5ccc(F)cc5)c(OC)cc4c32)cc1 | > 20 µM | > 20 µM | 11 µM | > 20 µM
COc1ccc(-n2c(C)nc3cnc4cc(-c5ccc(N)cc5)c(OC)cc4c32)cc1 | > 20 µM | 9.8 µM | > 20 µM | > 20 µM
COc1cc2c(cc1-c1c(C)n[nH]c1C)ncc1nc(C)n([C@@H](C)c3ccccc3)c12 | 13.1 µM | 8.92 µM | 0.53 µM | 16.5 µM
COc1ccc(-c2cc3ncc4nc(C)n([C@@H](C)c5ccccc5)c4c3cc2OC)cc1CO | > 20 µM | 13.5 µM | 18 µM | > 20 µM
COc1ccc(-n2c(C)nc3cnc4cc(-c5cc(C)cc(C)c5)c(OC)cc4c32)cc1 | > 20 µM | 12 µM | > 20 µM | > 20 µM
COc1ccc(-n2c(C)nc3cnc4cc(-c5cnccc5OC)c(OC)cc4c32)cc1 | > 20 µM | 5.67 µM | > 20 µM | > 20 µM
COc1ccc(-n2c(C)nc3cnc4cc(-c5ccc(OC)c(CO)c5)c(OC)cc4c32)cc1 | > 20 µM | 11 µM | 17.9 µM | > 20 µM
COc1cc2c(cc1-c1cnn(C)c1)ncc1nc(C)n([C@@H](C)c3ccccc3)c12 | > 20 µM | 11.5 µM | 0.62 µM | 2.14 µM
COc1ccc(-c2cc3ncc4nc(C)n(-c5ccc(OC)cc5)c4c3cc2OC)cc1 | 15.6 µM | 12.5 µM | 4.41 µM | > 20 µM
COc1ccc(-n2c(C)nc3cnc4cc(-c5ccc(O)cc5)c(OC)cc4c32)cc1 | 18.3 µM | 2.44 µM | 4.96 µM | 15 µM
COc1cc2c(cc1-c1c(C)noc1C)ncc1nc(C)n(-c3ccc(C#N)cc3)c12 | 12.8 µM | 2.34 µM | 4.63 µM | > 20 µM
COc1cc2c(cc1-c1cnn(C)c1)ncc1nc(C)n([C@H](C)c3ccccc3)c12 | > 20 µM | 6.9 µM | 6.83 µM | > 20 µM
COc1cc2c(cc1-c1c(C)noc1C)ncc1nc(C)n([C@@H](C)c3ccccc3)c12 | 12.5 µM | 11.2 µM | 2.02 µM | 16.6 µM
COc1ccc(-n2c(C)nc3cnc4cc(-c5ccc(C(F)(F)F)cc5)c(OC)cc4c32)cc1 | > 20 µM | > 20 µM | 5.64 µM | > 20 µM
COc1cc2c(cc1-c1c(C)noc1C)ncc1nc(C)n(-c3ccc(CC#N)cc3)c12 | 10.1 µM | 7.06 µM | 1.05 µM | > 20 µM
COc1ccc(-n2c(C)nc3cnc4cc(-c5c(C)noc5C)c(OC)cc4c32)cc1 | 11.6 µM | 9.3 µM | 1.22 µM | > 20 µM
COc1ccc(-n2c(C)nc3cnc4cc(-c5ccc(C(C)=O)cc5)c(OC)cc4c32)cc1 | > 20 µM | 12.4 µM | 11.1 µM | > 20 µM
COc1ccncc1-c1cc2ncc3nc(C)n([C@@H](C)c4ccccc4)c3c2cc1OC | 10.9 µM | 7.4 µM | > 20 µM | > 20 µM
COc1ccc(-n2c(C)nc3cnc4cc(-c5cnn(C)c5)c(OC)cc4c32)cc1 | > 20 µM | 3.23 µM | 9.71 µM | > 20 µM
COc1ccc(-n2c(C)nc3cnc4cc(-c5ccc6nc[nH]c6c5)c(OC)cc4c32)cc1 | > 20 µM | 5.8 µM | 5.33 µM | 17.2 µM
COc1cc2c(cc1-c1cc(C)cc(C)c1)ncc1nc(C)n([C@@H](C)c3ccccc3)c12 | > 20 µM | 5.92 µM | 6.24 µM | > 20 µM
COc1ccc(-n2c(C)nc3cnc4cc(-c5ccc(C#N)cc5)c(OC)cc4c32)cc1 | > 20 µM | 7.9 µM | 5.39 µM | > 20 µM
COc1ccc(-n2c(C)nc3cnc4cc(-c5ccc6[nH]ccc6c5)c(OC)cc4c32)cc1 | > 20 µM | 9.8 µM | 9.93 µM | 15.1 µM
COc1ccc(-n2c(C)nc3cnc4cc(-c5ccc(C)cc5)c(OC)cc4c32)cc1 | > 20 µM | 6.34 µM | > 20 µM | > 20 µM
COc1cc2c(cc1-c1ccc(C#N)cc1)ncc1nc(C)n([C@@H](C)c3ccccc3)c12 | 10.1 µM | 9.09 µM | 5 µM | 4.53 µM

The next compounds have a lower IC50 (MOLM-13) than those just listed; values first:

IC50 (MOLM-13) | IC50 (MM1.S) | IC50 (MV4-11) | IC50 (Jurkat) | Structure (SMILES)
2.49 µM | 9.48 µM | 2.85 µM | > 20 µM | COc1cc2c(cc1-c1ccc(F)cc1)ncc1nc(C)n([C@@H](C)c3ccccc3)c12
0.91 µM | 11.9 µM | 5 µM | 16.4 µM | COc1cc2c(cc1-c1ccc(C(F)(F)F)cc1)ncc1nc(C)n([C@@H](C)c3ccccc3)c12
5.15 µM | 1.85 µM | 1.02 µM | > 20 µM | COc1cc2c(cc1-c1c(C)noc1C)ncc1nc(C)n(C3CCOCC3)c12
8.42 µM | 5.79 µM | 2.25 µM | > 20 µM | COc1cc2c(cc1-c1ccc(O)cc1)ncc1nc(C)n([C@@H](C)c3ccccc3)c12
7.16 µM | 4.04 µM | 3.25 µM | 11.1 µM | COc1cc2c(cc1-c1ccc(N)cc1)ncc1nc(C)n([C@@H](C)c3ccccc3)c12
4.74 µM | 5.69 µM | 1.4 µM | 15.2 µM | COc1cc2c(cc1-c1ccc(N)nc1)ncc1nc(C)n([C@@H](C)c3ccccc3)c12
0.44 µM | > 20 µM | 10.9 µM | > 20 µM | COc1cc2c(cc1-c1c(C)n[nH]c1C)ncc1nc(C)n([C@H](C)c3ccccn3)c12
6.4 µM | 3.55 µM | 1.29 µM | 16.1 µM | COc1cc2c(cc1-c1c(C)noc1C)ncc1nc(C)n([C@H](C)c3ccccn3)c12
9.7 µM | 13.7 µM | 2.21 µM | > 20 µM | COc1cc2c(cc1-c1ccc3[nH]ccc3c1)ncc1nc(C)n([C@@H](C)c3ccccc3)c12
6.85 µM | 10.1 µM | 6.13 µM | 15.6 µM | COc1cc2c(cc1-c1cnc3[nH]ccc3c1)ncc1nc(C)n(C(C)c3ccccc3)c12 (stereo not given)
4.12 µM | 4.84 µM | 13.1 µM | 5.46 µM | COc1ccc(-c2cc3ncc4nc(C)n([C@@H](C)c5ccccc5)c4c3cc2OC)cc1
3.55 µM | 5.84 µM | 2.6 µM | 9.87 µM | COc1cc2c(cc1-c1cnn(C)c1)ncc1nc(C)n([C@H](C)c3ccccn3)c12
